Consider seven molecules from ChEMBL document CHEMBL2429808, “Synthesis, characterization, and cytotoxicity of N-2-hydroxyethyl-substituted azastigmastanes” (Med Chem Res, 2013).

What all share (format): functional, cell-based
The test system of one experiment is HCT-116. Put plainly: Cytotoxicity against human HCT116 cells after 96 hrs by MTT assay. As to conditions: for pIC50: HCT-116, 96 h. A general note: Tetrazolium assays rely on reduction of a dye to a coloured formazan, in cell work by metabolically active cells.
The next experiment deals with HepG2. Put plainly: Cytotoxicity against human HepG2 cells after 96 hrs by MTT assay. As to conditions: for pIC50: HepG2, 96 h.
A further experiment concerns MCF7. Description: Cytotoxicity against human MCF7 cells after 96 hrs by MTT assay. Conditions: for pIC50: MCF7, 96 h.

Usually pIC50 stands for the IC50 on a negative log10 scale, so that one unit is a factor of ten. A higher pIC50 goes with a low IC50.

Molecules are shown by their SMILES. pIC50: −log10 of the molar value.

Consider `CC[C@H](CC[C@@H](C)[C@H]1CC[C@H]2[C@@H]3CC(=O)N(CCO)[C@H]4CCCC[C@]4(C)[C@H]3CC[C@]12C)C(C)C`, for which the Activity entry in the experiment with HCT-116, in the experiment on HepG2 and in the experiment on MCF7 was “Dose-dependent effect” each time. The pIC50 with HCT-116 was 5.40; with HepG2, 5.33; in the experiment on MCF7 it was 5.53.
Consider `CC[C@H](CC[C@@H](C)[C@H]1CC[C@H]2[C@@H]3CC(=O)[C@H]4CCCC[C@]4(C)[C@H]3CC[C@]12C)C(C)C`, for which the pIC50 is 5.35 with HCT-116, 5.28 with HepG2 and 5.48 in the experiment on MCF7.
As for `CC[C@H](CC[C@@H](C)[C@H]1CC[C@H]2[C@@H]3CC(=O)[C@H]4C[C@@H](Cl)CC[C@]4(C)[C@H]3CC[C@]12C)C(C)C`, the pIC50 was 5.50 with HCT-116, 5.45 in the experiment on HepG2 and 5.52 in the experiment on MCF7.
On to `CC[C@H](CC[C@@H](C)[C@H]1CC[C@H]2[C@@H]3CC(=O)N(CCO)[C@H]4C[C@@H](Cl)CC[C@]4(C)[C@H]3CC[C@]12C)C(C)C`, for which the Activity entry in the experiment on HCT-116, in the experiment on HepG2 and in the experiment on MCF7 was “Dose-dependent effect” in each case. Moreover, the pIC50 with HCT-116 is 5.57; in the experiment on HepG2, 5.52; in the experiment with MCF7 it was 5.59.
As to `CC[C@H](CC[C@@H](C)[C@H]1CC[C@H]2[C@@H]3CC(=O)N(CCO)[C@H]4C[C@@H](OC(C)=O)CC[C@]4(C)[C@H]3CC[C@]12C)C(C)C`, the Activity entry in the experiment with HCT-116, in the experiment on HepG2 and in the experiment on MCF7 was “Dose-dependent effect” throughout. In addition, the pIC50 in the experiment on HCT-116 was 5.37; with HepG2, 5.34; in the experiment on MCF7, 5.52.
Consider `CC[C@H](CC[C@@H](C)[C@H]1CC[C@H]2[C@@H]3CC(=O)[C@H]4C[C@@H](OC(C)=O)CC[C@]4(C)[C@H]3CC[C@]12C)C(C)C`, for which the pIC50 in the experiment on HCT-116 was 5.30; with HepG2, 5.31; with MCF7, 5.45.
For the molecule `COc1cccc2c1C(=O)c1c(O)c3c(c(O)c1C2=O)C[C@@](O)(C(=O)CO)C[C@@H]3O[C@H]1C[C@H](N)[C@H](O)[C@H](C)O1` [DOXORUBICIN], the pIC50 is 5.59 in the experiment on HCT-116, 5.57 with HepG2 and 5.61 in the experiment on MCF7.
